Test results taken from patent publication US20140343085A1, “USE OF ARYL DERIVATIVES FOR CONTROLLING ECTOPARASITES” (Novartis AG, priority 2011, published 2014).

How the values were obtained:
[1] = Blood concentration of active enantiomer in dogs, fed vs fasted (HPLC-MSMS, enantioselective column); type: in vivo; settings: 50 mg/kg
Method: To 12 dogs of mixed breed, the racemic compound 5-[5-(3,4,5-trichloro-phenyl)-5-trifluoromethyl-4,5-dihydro-isoxazol-3-yl]-3-methyl-thiophene-2-carboxylic acid [(2,2,2-trifluoro-ethylcarbamoyl)-methyl]-amide was administered in form of a solution at a dose of 50 mg/kg of animal, and the blood concentration of said aryl isoxazoline compound within the dogs was then monitored up to 6 days following the administration.
4 dogs (Group 1) received a full daily ration of pelleted dry food 15 to 30 minutes before the administration of the aryl isoxazoline compound; The Group 2 dogs received an identical ration of pelleted dry feed 30 minutes after the administration of the active ingredient. To the remaining 4 dogs of Group 3, the aryl isoxazoline compound was administered in fasted condition, and they received the identical ration of pelleted dry food only 5 hours following the uptake of the antiparasiticide.
(§1) Analysis of the blood concentration was performed as follows. A blood sample from the animal was subjected to a precipitation step with organic solvent and subsequently cleaned up on a […] solid phase extraction cartridge. The eluate was evaporated to dryness and reconstituted in mobile phase and analyzed on a HPLC-MSMS using an enantioselective column (amylose-based, brand name “Chiralpak”).

[2] = Blood concentration of active enantiomer in cats, fed vs fasted (HPLC-MSMS, enantioselective column); type: in vivo; settings: 45 mg, fasted Group 2
Method: as §1
To 4 cats, each 45 mg of the racemic compound 5-[5-(3,4,5-trichloro-phenyl)-5-trifluoromethyl-4,5-dihydro-isoxazol-3-yl]-3-methyl-thiophene-2-carboxylic acid [(2,2,2-trifluoro-ethylcarbamoyl)-methyl]-amide were administered in form of an oral solution, and the blood concentration of said aryl isoxazoline compound within the cats was then monitored according to the method as described in Example 1 up to 24 days following the administration.
2 cats (Group 1) received a full daily ration of commercial wet food 15 to 30 minutes before the administration of the aryl isoxazoline compound; The two Group 2 cats received an identical ration of wet food only 5 hours following the uptake of the aryl isoxazoline.

With `Cc1cc(C2=NOC(c3cc(Cl)c(Cl)c(Cl)c3)(C(F)(F)F)C2)sc1C(=O)NCC(=O)NCC(F)(F)F` (racemic) [5-[5-(3,4,5-trichloro-phenyl)-5-trifluoromethyl-4,5-dihydro-isoxazol-3-yl]-3-methyl-thiophene-2-carboxylic acid [(2,2,2-trifluoro-ethylcarbamoyl)-methyl]-amide] the “Blood concentration of active ingredient, comparison of groups” value ([1]; Group 1 (fed 15 to 30 minutes before administration)) was “highest blood concentration of active ingredient”, the “Blood concentration of active ingredient, sufficiency for ectoparasite control” value ([1]; Group 2 (fed 30 minutes after administration)) was “allowed effective ectoparasite control as well” and the “Blood concentration of the active enantiomer, sufficiency for ectoparasite control” value ([1]; Group 3 (fasted, fed 5 hours after)) was “never reached a level being sufficient for an effective ectoparasite control”. The “Level of active ingredient, sufficiency for ectoparasite control” value [2] was “never reached a level of active ingredient sufficient to provide an effective ectoparasite control”.
